According to patent publication US9018248B2, “Fatty acid derivatives of catechins and methods of their use” (Genesis Group Inc., priority 2010, dated 2015):

Experiment: TBARS formation in cooked pork model system
Details: 80 μmol/kg meat, stored at 4° C.
Description: Fresh ground pork (40 g) was mixed with deionized water (10 g) in a Mason jar. Samples and reference antioxidant compound (BHA) dissolved in ethanol were added to meat at a level of 80 μmol/kg. A control without any antioxidant was also prepared. The content was thoroughly mixed and cooked at 80° C. in a thermostated water bath for 40 min with intermittent stirring. The cooked meat was cooled to room temperature and homogenized with a Polytron PT 3000 (Brinkmann Instruments, Rexdale, ON) homogenizer. The homogenate was then transferred into plastic bags and stored at 4° C. for 14 days. […].
TBARS values were determined as described by Shahidi and Hong (Shahidi, F. and Hong, C. Evaluation of malonaldehyde as a marker of oxidative rancidity in meat products. J. Food Biochem. 15, 97-105, 1991).
A series of TMP (1,1,3,3-tetramethoxypropane) standard solutions at difference concentrations was mixed with thiobarbituric acid (TBA) in screw-capped tubes and heated in a boiling water bath for 45 min. After cooling on ice, the absorbance was recorded at 532 nm and a standard curve was constructed (absorbance versus concentration). For TBARS in the cooked meat model system, 2 g of meat were mixed with 5 ml of trichloroacetic acid (TCA, 10% w/v) in a centrifuge tube, followed by addition of 5 ml of TBA reagent. The mixture was centrifuged at 3000×g for 10 min and the supernatant was filtered. The filtrate was heated in a boiling water bath for 45 min and absorbance was measured at 532 nm after cooling to room temperature. TBARS values in meat samples were obtained using the standard curve as μmol malonaldehyde equivalents/kg of meat. Antioxidant activity was calculated as percentage inhibition of TBARS formation by test compounds.

Structure (SMILES): COc1ccc(O)c(C(C)(C)C)c1 [BHA, reference compound]
- Inhibition of TBARS formation in cooked pork: 83.3 ± 2.34^ab %
